Substitutions are numbered along the chain they refer to.
How the values were obtained:
[1] = molecular target: T1, mitochondrial calcium uniporter (MCU) (Homo sapiens, UniProt Q8NE86); assay: MCU-mediated Ca2+ uptake and ΔΨm in permeabilized HEK293T cells; assay type: cell-based; design: endogenous in cells; host or cells: HEK293T (digitonin-permeabilized); conditions: for MCU mediated mCa2+ uptake / transient ΔΨm loss (JC-1): 5 μM compound, 20 μM Ca2+ bolus; for MCU mediated mCa2+ uptake: digitonin permeabilized HEK293T cells; for transient ΔΨm loss (JC-1): permeabilized HEK293T cells
T1 sequence (Q8NE86 51-351): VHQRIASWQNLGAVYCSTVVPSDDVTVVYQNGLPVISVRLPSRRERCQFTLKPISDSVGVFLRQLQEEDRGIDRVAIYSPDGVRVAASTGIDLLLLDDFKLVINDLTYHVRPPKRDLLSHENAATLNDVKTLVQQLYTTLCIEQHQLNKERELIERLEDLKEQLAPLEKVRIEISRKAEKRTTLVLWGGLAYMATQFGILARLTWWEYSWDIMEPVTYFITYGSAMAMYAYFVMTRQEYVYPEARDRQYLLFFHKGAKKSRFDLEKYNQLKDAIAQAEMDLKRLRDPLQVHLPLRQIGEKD
T1 sequence (Q9H4I9 48-107 partner limits assumed): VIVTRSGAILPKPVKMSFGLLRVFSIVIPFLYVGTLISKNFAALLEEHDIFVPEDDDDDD
Description: (§1) An equal number of IHEK293T (6×10^6 cells) were washed in Ca^2+ free PBS, pH 7.4, resuspended and permeabilized with 40 μg/ml digitonin in 1.5 ml of intracellular medium (ICM) composed of 120 mM KCl, 10 mM NaCl, 1 mM K—H2PO4, 20 mM HE PES-Tris, pH 7.2 and 2 μM thapsigargin to block the SERCA pump. All measurements were performed in the presence of 2 mM succinate. The permeabilized cells were loaded with JC-1 (800 nM) and Fura2-FF (0.5 μM), respectively. Fluorescence was monitored in a multi-wavelength excitation dual-wavelength emission fluorimeter. [Ca^2+]out is represented as the excitation ratio (340 nm/380 nm) of Fura2-FF/FA fluorescence and ΔΨm as the ratio of the fluorescence of J-aggregate (570 nm excitation/595 nm emission) and monomer (490 nm excitation/535 nm emission) forms of JC-1. A series of extra-mitochondrial Ca^2+ bolus (20 μM) was added and mitochondrial uncoupler, CCCP (2 jμM), were added at the indicated time points. All of the experiments were performed at 37° C. with constant stirring.
With the new nitrido-bridged ruthenium compounds C-2 and C-3 prepared, MCU-inhibitory properties of these compounds were evaluated and their activities compared to C-1, the oxo-bridged Ru360 analogue of the conventional art (S. R. Nathan et al., Inorg. Chem. 2017, 56, 3123-3126 and S. R. Nathan et al., J. Vis. Exp. 2017, 56527). The cytotoxicity of the complexes in HEK293 cells was first measured using the colorimetric thiazolyl blue tetrazolium bromide (MTT) assay, as well known in the art. […] To measure the effect of these compounds on MCU activity, permeabilized HEK293T cells were treated with commercially available Ru360, C-1, C-2, or C-3 (5 jμM) 200 seconds prior to the delivery of a 20 μM bolus of Ca^2+ in the presence of 2 mM succinate as an energy source and the sarco/endoplasmic reticulum Ca^2+-ATPase (SERCA) pump blocker thapsigargin to prevent ER Ca^2+ uptake (S. Shanmughapriya et al., Sci. Signal. 2015, 8, ra23).
FIGS. 2A-2C are graphs showing changes in mitochondrial membrane potential (ΔΨm, JC-1, top panel) and extramitochondrial Ca^2+([Ca^2+]out) clearance (Fura-2 FF, bottom panel) in digitonin permeabilized HEK293T cells in response to 20 μM of Ca^2+ after treatment with 5 μM of C-1 (FIG. 2A), C-2 (FIG. 2B), and C-3 (FIG. 2C). The transient drop in ΔΨm in control cells upon Ca^2+ addition indicates accumulation of Ca^2+ in the mitochondrial matrix. FIG. 2D is a graph quantifying the rate of [Ca^2+] uptake as a function of decrease in [Ca^2+]out after a […] Ca^2+ pulse. […] Additionally, ΔΨm was monitored using 5,5′,6,6′-tetrachloro-1,1′,3,3′-tetraethylbenzimidazolylcarbocyanine iodide (JC-1) dye (M. Reen et al., Biochemistry 1991, 30, 4480-4486).
Having identified (C-2 as a cell-permeable MCU inhibitor, a dose-response analysis was performed to determine the potency of C-2 towards mCa^2+ uptake inhibition of C-2 in a permeabilized cell system. Permeabilized IHEK293T cells were treated with C-2 (1 nM to 1 μM). A 20 μM Ca^2+ bolus was added after baseline recording, and the extra-mitochondrial calcium cleared was used as an indicator for MCU-mediated mCa^2+ uptake using Fura-2FF. The results are shown in FIGS. 4A-4C. FIG. 4A includes representative traces of [Ca^2+]out clearance in permeabilized HEK293T cells challenged with a range of C-2 concentrations (1, 2, 3, 5, and 10 nM). FIG. 4B is a graph comparing MCU-inhibitory effect by Ru360 (30 nM) and C-2 (2 and 10 nM) at lower concentrations. FIG. 4C is a graph showing calculation of dose-dependent IC50 inhibition by C-2 and Ru360. Data represent mean±SEM (n=3-6), n.s.=not significant. […] Furthermore, complete inhibition of mCa^2+ uptake was observed when cells were dosed with 10 nM C-2 while 500 nM of Ru360 was required for the same response (FIGS. 4A and 4B).

[2] = molecular target: T2, human MCU S259A mutant (Homo sapiens, UniProt Q8NE86, S259A); assay: mCa2+ uptake in permeabilized HEK293T cells expressing MCU S259A mutant; assay type: cell-based; conditions: C-2 10 nM, Ru360 500 nM
T2 construct: stably expressing flag-tagged full-length human wild type MCU (MCU^WT) or the mutant S259A (MCU^S259A); Flag; expressed in transfected cells
T2 sequence (Q8NE86 51-351 S259A): T1 sequence (Q8NE86 51-351) with S209A
T2 sequence (Q9H4I9 48-107 partner limits assumed): T1 sequence (Q9H4I9 48-107 partner limits assumed)
Description: as §1
Having observed the high potency of C-2 compared to Ru360, the mechanism of action of C-2 was next investigated. […] HIEK293T cells stably expressing flag-tagged full-length human wild type MCU (MCU^WT) or the mutant S259A (MCU^S259A) were permeabilized and mCa^2+ uptake was measured as above.

Row | Compound | IC50 [1] | MCU mediated mCa2+ uptake [1] | transient ΔΨm loss (JC-1) [1] | effect of MCU S259A mutation on MCU inhibition compared to MCU WT cells [2]
1 | N.N.N.N.N.N.N.N.O=C[O-].O=C[O-].[O-2].[Ru+3].[Ru+4] [Ru360, reference compound] | 30 nM | significant reduction in MCU mediated mCa^2+ uptake | no transient A m loss | partial resistance to Ru360 inhibition
2 | [Ru2(μ-N)(en)4Cl2]Cl3 [C-3] |  | significant reduction in MCU mediated mCa^2+ uptake | no transient A m loss | 
3 | N.N.N.N.N.N.N.N.[Cl-].[Cl-].[N-3].[Ru+4].[Ru+4] [C-2, [Ru2(μ-N)(NH3)8Cl2]Cl3] | 2.6 nM | significant reduction in MCU mediated mCa^2+ uptake | no transient A m loss | almost no change in the inhibitory activity
